Experimental data taken from ChEMBL document CHEMBL1140215, “Discovery of sodium R-(+)-4-{2-[5-(2-fluoro-3-methoxyphenyl)-3-(2-fluoro-6-[trifluoromethyl]benzyl)-4-methyl-2,6-dioxo-3,6-dihydro-2H-pyrimidin-1-yl]-1-phenylethylamino}butyrate (elagolix), a potent and orally available nonpeptide antagonist of the human gonadotropin-releasing hormone receptor” (J Med Chem, 2008).
Values belong to the molecule of their own block, whether it stands above or below them. The source made the active and inactive calls. The calls are words filed in the database; no cut-off is given here.

Columns and labels:
Cytochrome P450 3A4 = Cytochrome P450 3A4 (Homo sapiens, UniProt P08684); test: Inhibition of CYP3A4; assay type: ADME
Caco-2 [1] = test: Ratio of permeability from apical to basolateral side over basolateral to apical side in human Caco-2 cells; assay type: ADME, cell-based
[2] = molecular target: T1, Gonadotropin-releasing hormone receptor (Homo sapiens, UniProt P30968); test: Displacement of [125I-Tyr5,DLeu6,NMeLeu7,Pro9-NEt-]GnRH from human GnRH receptor expressed in HEK293 cells by liquid scintillation counting; assay type: cell-based
T1 sequence (P30968 whole entry): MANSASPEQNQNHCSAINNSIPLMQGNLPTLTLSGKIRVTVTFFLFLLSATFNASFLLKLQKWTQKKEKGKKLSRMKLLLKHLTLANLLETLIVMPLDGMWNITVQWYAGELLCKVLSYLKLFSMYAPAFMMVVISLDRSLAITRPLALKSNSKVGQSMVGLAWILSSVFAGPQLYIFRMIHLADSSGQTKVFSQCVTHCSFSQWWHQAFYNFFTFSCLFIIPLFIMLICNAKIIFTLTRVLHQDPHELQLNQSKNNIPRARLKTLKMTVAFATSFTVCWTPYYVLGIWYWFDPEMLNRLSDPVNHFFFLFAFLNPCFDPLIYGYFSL

[3] = Bioavailability in rat at 3 mg/kg, iv; assay type: ADME, organism-based; settings: in vivo
[4] = Lipophilicity, log D of the compound; assay type: physicochemical; settings: octanol/water
[5] = Cmax in rat at 3 mg/kg, iv; assay type: ADME, organism-based; set-up: dose 3 mg/kg, route intravenous; settings: in vivo
[6] = Tmax in rat at 3 mg/kg, iv; assay type: ADME, organism-based; set-up: dose 3 mg/kg, route intravenous; settings: in vivo
[7] = molecular target: T1, Gonadotropin-releasing hormone receptor; test: Antagonist activity at human GnRH receptor expressed in RBL1 cells assessed as inhibition of GnRH-stimulated inositol phosphate production; assay type: functional, cell-based, RBL-1
Rattus norvegicus = test: (§1) AUC in rat at 3 mg/kg, iv; assay type: ADME, organism-based, Plasma; set-up: dose 3 mg/kg, route intravenous; settings: in vivo
[8] = molecular target: T2, Gonadotropin-releasing hormone receptor (Rattus norvegicus, UniProt P30969); test: Displacement of [125I-Tyr5,DLeu6,NMeLeu7,Pro9-NEt-]GnRH from rat GnRH receptor expressed in CHO cells by liquid scintillation counting; assay type: cell-based
T2 sequence (P30969 whole entry): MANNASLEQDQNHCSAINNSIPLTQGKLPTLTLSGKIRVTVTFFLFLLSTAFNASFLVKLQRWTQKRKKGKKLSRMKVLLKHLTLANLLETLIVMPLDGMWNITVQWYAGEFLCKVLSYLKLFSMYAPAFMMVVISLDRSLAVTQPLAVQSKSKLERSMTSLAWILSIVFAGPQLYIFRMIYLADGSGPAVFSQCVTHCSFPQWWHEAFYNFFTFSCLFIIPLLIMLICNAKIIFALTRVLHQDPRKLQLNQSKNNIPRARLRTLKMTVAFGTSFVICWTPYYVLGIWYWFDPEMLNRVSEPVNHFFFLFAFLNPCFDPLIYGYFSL

[9] = Half life in rat at 3 mg/kg, iv; assay type: ADME, organism-based; set-up: dose 3 mg/kg, route intravenous; settings: in vivo
[10] = Apparent permeability across human Caco-2 cell membrane; assay type: ADME, cell-based
[11] = Volume of distribution in rat at 3 mg/kg, iv; assay type: ADME, organism-based; set-up: dose 3 mg/kg, route intravenous; settings: in vivo
[12] = Plasma clearance in rhesus monkey; assay type: ADME, organism-based, Macaca mulatta
[13] = Volume of distribution in rhesus monkey; assay type: ADME, organism-based, Macaca mulatta; settings: in vivo
[14] = Oral bioavailability in rhesus monkey; assay type: ADME, organism-based, Macaca mulatta; settings: in vivo
[15] = Half life in rhesus monkey; assay type: ADME, organism-based, Macaca mulatta; settings: in vivo
[16] = AUC in mouse; assay type: ADME, organism-based; settings: plasma
[17] = Oral bioavailability in mouse; assay type: ADME, organism-based; settings: in vivo
[18] = AUC in rhesus monkey; assay type: ADME, organism-based, Macaca mulatta; settings: plasma
Caco-2 [19] = test: Ratio of permeability from apical to basolateral side over basolateral to apical side in human Caco-2 cells at 1 mM; assay type: ADME, cell-based; settings: caco-2, 1000 µM
[20] = Bioavailability in Beagle dog at 50 mg/kg; assay type: ADME, organism-based, Canis lupus familiaris; settings: in vivo
[21] = Plasma clearance in rat at 3 mg/kg, iv; assay type: ADME, organism-based; set-up: dose 3 mg/kg, route intravenous
[22] = Tmax in Beagle dog at 50 mg/kg, po; assay type: ADME, organism-based, Canis lupus familiaris; set-up: dose 50 mg/kg, route oral; settings: in vivo
[23] = Half life in mouse; assay type: ADME, organism-based; settings: in vivo
[24] = Tmax in mouse; assay type: ADME, organism-based; settings: in vivo
[25] = Plasma clearance in Beagle dog at 50 mg/kg, po; assay type: ADME, organism-based, Canis lupus familiaris; set-up: dose 50 mg/kg, route oral
[26] = Cmax in Beagle dog at 50 mg/kg, po; assay type: ADME, organism-based, Canis lupus familiaris; set-up: dose 50 mg/kg, route oral; settings: in vivo
[27] = as §1; assay type: ADME, organism-based, Plasma; set-up: dose 3 mg/kg, route intravenous; settings: plasma
[28] = Half life in Beagle dog at 50 mg/kg, po; assay type: ADME, organism-based, Canis lupus familiaris; set-up: dose 50 mg/kg, route oral; settings: in vivo
[29] = Cmax in mouse; assay type: ADME, organism-based; settings: in vivo
[30] = AUC in Beagle dog at 50 mg/kg, po; assay type: ADME, organism-based, Canis lupus familiaris; set-up: dose 50 mg/kg, route oral; settings: plasma
Mast cell = test: Induction of histamine release in rat peritoneal mast cells; assay type: functional, cell-based
[31] = Volume of distribution in mouse; assay type: ADME, organism-based; settings: in vivo
[32] = Plasma clearance in mouse; assay type: ADME, organism-based
Cynomolgus monkey [33] = test: Suppression of circulating plasma LH levels in cynomolgus monkey at 30 mg/kg, po after 8 hrs; assay type: functional, Macaca fascicularis
Canis familiaris = test: Volume of distribution in Beagle dog at 50 mg/kg, po; assay type: ADME, organism-based, Canis lupus familiaris; set-up: dose 50 mg/kg, route oral; settings: in vivo
[34] = Tmax in rhesus monkey; assay type: ADME, organism-based, Macaca mulatta; settings: in vivo
[35] = Cmax in rhesus monkey; assay type: ADME, organism-based, Macaca mulatta; settings: in vivo
[36] = molecular target: T3, Gonadotropin-releasing hormone receptor (Macaca mulatta, UniProt Q8SPZ1); test: Displacement of [125I-Tyr5,DLeu6,NMeLeu7,Pro9-NEt-]GnRH from monkey GnRH receptor expressed in CHO cells by liquid scintillation counting; assay type: cell-based
T3 sequence (Q8SPZ1 whole entry): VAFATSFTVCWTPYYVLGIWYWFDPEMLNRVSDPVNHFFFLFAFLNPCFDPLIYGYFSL

[37] = Tmax in rat at 10 mg/kg, iv and 10 mg/kg, po; assay type: ADME, organism-based; settings: in vivo
[38] = Cmax in rat at 10 mg/kg, iv and 10 mg/kg, po; assay type: ADME, organism-based; settings: in vivo
[39] = AUC in rat at 10 mg/kg, iv and 10 mg/kg, po; assay type: ADME, organism-based; settings: plasma
[40] = Volume of distribution in rat at 10 mg/kg, iv and 10 mg/kg, po; assay type: ADME, organism-based; settings: in vivo
[41] = Oral bioavailability in rat at 10 mg/kg, iv and 10 mg/kg, po; assay type: ADME, organism-based; settings: in vivo
[42] = Half life in rat at 10 mg/kg, iv and 10 mg/kg, po; assay type: ADME, organism-based; settings: in vivo
Cynomolgus monkey [43] = test: Suppression of circulating plasma LH levels in cynomolgus monkey at 30 mg/kg, po after 4 to 8 hrs; assay type: functional, Macaca fascicularis
[44] = Plasma clearance in rat at 10 mg/kg, iv and 10 mg/kg, po; assay type: ADME, organism-based

Sequence of Cytochrome P450 3A4 (P08684 whole entry): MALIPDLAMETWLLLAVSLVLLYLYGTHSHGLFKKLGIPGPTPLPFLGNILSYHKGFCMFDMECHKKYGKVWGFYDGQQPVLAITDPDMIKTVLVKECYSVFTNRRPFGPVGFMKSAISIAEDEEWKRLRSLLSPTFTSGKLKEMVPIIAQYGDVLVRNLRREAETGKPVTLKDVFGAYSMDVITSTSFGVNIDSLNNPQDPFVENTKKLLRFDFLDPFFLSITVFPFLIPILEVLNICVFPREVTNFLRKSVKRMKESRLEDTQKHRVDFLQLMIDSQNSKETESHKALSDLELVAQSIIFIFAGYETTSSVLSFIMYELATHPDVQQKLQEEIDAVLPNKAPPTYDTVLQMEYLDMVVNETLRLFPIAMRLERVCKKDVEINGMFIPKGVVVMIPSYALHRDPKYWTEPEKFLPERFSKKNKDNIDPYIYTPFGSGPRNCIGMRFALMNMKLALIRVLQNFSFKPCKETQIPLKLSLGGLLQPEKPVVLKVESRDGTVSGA

SMILES: COc1cccc(-c2c(C)n(Cc3c(F)cccc3F)c(=O)n(C[C@H](NCCCC(=O)O)c3ccccc3)c2=O)c1F
IC50 (Cytochrome P450 3A4): 135000 nM
Ratio (Caco-2 [1]): 51
Ki [2]: 2.1 nM
bioavailability [3]: 1.1%
logD [4]: 0.2
Cmax [5]: 25 ng/mL
Tmax [6]: 0.8 h
IC50 [7]: 27 nM
AUC (Rattus norvegicus): 81 ng·h/mL
Ki [8]: > 10000 nM
half-life [9]: 4.5 h
Papp [10]: 0.4 ×10⁻⁶ cm/s
Vd [11]: 8.5 L/kg

SMILES: COc1cccc(-c2c(C)n(Cc3c(F)cccc3C(F)(F)F)c(=O)n(C[C@H](NCCCC(=O)[O-])c3ccccc3)c2=O)c1F.[Na+] [ELAGOLIX SODIUM]
clearance [12]: 25.7 mL/min/kg
Vd [13]: 2.5 L/kg
bioavailability [14]: 11%
half-life [15]: 1.1 h
IC50 (Cytochrome P450 3A4): 56000 nM
AUC [16]: 326 ng·h/mL
Ratio (Caco-2 [1]): 9.2
bioavailability [17]: 10%
AUC [18]: 699 ng·h/mL
Ki [2]: 0.9 nM
bioavailability [3]: 5.8%
Ratio (Caco-2 [19]): 1.3
logD [4]: 2
bioavailability [20]: 100%
Cmax [5]: 338 ng/mL
clearance [21]: 33.3 mL/min/kg
Tmax [6]: 0.25 h
Tmax [22]: 2 h
half-life [23]: 0.3 h
Tmax [24]: 0.25 h
CL/F [25]: 14.5 mL/min/kg
Cmax [26]: 13900 ng/mL
IC50 [7]: 1.5 nM
AUC [27]: 290 ng·h/mL
half-life [28]: 2.8 h
Ki [8]: 4400 nM
Cmax [29]: 741 ng/mL
AUC [30]: 80700 ng·h/mL
Activity (Mast cell): inactive
Vd [31]: 1.4 L/kg
clearance [32]: 50 mL/min/kg
Activity (Cynomolgus monkey [33]): 75%
Vd (Canis familiaris): 0.92 L/kg
half-life [9]: 0.9 h
Papp [10]: 2.8 ×10⁻⁶ cm/s
Tmax [34]: 0.69 h
Vd [11]: 2.6 L/kg
Cmax [35]: 518 ng/mL
Ki [36]: 3.3 nM

SMILES: COc1cccc(-c2c(C)n(Cc3c(F)cccc3C(F)(F)F)c(=O)n(C[C@H](NCC(=O)O)c3ccccc3)c2=O)c1F
Ki [2]: 71 nM

SMILES: COc1cccc(-c2c(C)n(Cc3c(F)cccc3C(F)(F)F)c(=O)n(C[C@@H](c3ccccc3)N(C)CCCC(=O)O)c2=O)c1F
IC50 (Cytochrome P450 3A4): 69000 nM
Ratio (Caco-2 [1]): 4
Ki [2]: 3.7 nM
bioavailability [3]: 3.7%
Cmax [5]: 592 ng/mL
clearance [21]: 26.4 mL/min/kg
Tmax [6]: 0.25 h
AUC [27]: 385 ng·h/mL
half-life [9]: 2.6 h
Papp [10]: 7.5 ×10⁻⁶ cm/s
Vd [11]: 3.2 L/kg

Further molecules by falling IC50 (Cytochrome P450 3A4), results first:

IC50 (Cytochrome P450 3A4): 69000 nM
Ki [2]: 12 nM
SMILES: COc1cccc(-c2c(C)n(Cc3c(F)cccc3C(F)(F)F)c(=O)n(C[C@H](NCCC(=O)O)c3ccccc3)c2=O)c1F

IC50 (Cytochrome P450 3A4): 29000 nM
Ki [2]: 7.6 nM
SMILES: COc1cccc(-c2c(C)n(Cc3c(F)cccc3C(F)(F)F)c(=O)n(C[C@H](NCCCCC(=O)O)c3ccccc3)c2=O)c1F

IC50 (Cytochrome P450 3A4): 11000 nM
Ki [2]: 1.1 nM
IC50 [7]: 3.2 nM
SMILES: COc1cccc(-c2c(C)n(Cc3c(F)cccc3Cl)c(=O)n(C[C@H](NCCCC(=O)O)c3ccccc3)c2=O)c1F

Tmax [37]: 1 h
IC50 (Cytochrome P450 3A4): 700 nM
Cmax [38]: 24.2 ng/mL
Vd [40]: 7.1 L/kg
bioavailability [41]: 3.5%
logD [4]: 1.8
half-life [42]: 1.3 h
AUC [39]: 106 ng·h/mL
clearance [44]: 64.7 mL/min/kg
Papp [10]: 17.6 ×10⁻⁶ cm/s
SMILES: COc1cccc(-c2c(C)n(Cc3c(F)cccc3F)c(=O)n(C[C@H](N)c3ccccc3)c2=O)c1F
Activity (Cynomolgus monkey [43]): 50%

IC50 (Cytochrome P450 3A4): 440 nM
Ki [2]: 4.2 nM
SMILES: COC(=O)CCCN[C@@H](Cn1c(=O)c(-c2cccc(OC)c2F)c(C)n(Cc2c(F)cccc2C(F)(F)F)c1=O)c1ccccc1

Tmax [37]: 1.2 h
IC50 (Cytochrome P450 3A4): 230 nM
Cmax [38]: 15 ng/mL
IC50 [7]: 0.5 nM
Ki [8]: 1200 nM
AUC [39]: 46 ng·h/mL
SMILES: COc1cccc(-c2c(C)n(Cc3c(F)cccc3C(F)(F)F)c(=O)n(C[C@H](N)c3ccccc3)c2=O)c1F
